Where a name gives a salt, the structure may show the parent alone.
How the values were obtained:
MIA PaCa-2 cells = assay: MIA PaCa2 cell-based assay (1,536-well high-content imaging ALDEFLUOR assay); parameters: species or system human; settings: Homo sapiens, 0.5 h, ALDEFLUOR BAAA substrate 500 nM, 30 minutes
Outline: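 MIA PaCa-2 cells (1,000/well), plated overnight, given BAAA substrate (500 nM) plus Hoechst 33342 (0.5 nM), then compound (16-point, 1.4 nM–47.8 μM final; 0.5% DMSO). After 30 min at 37° C, ALDH activity imaged by high-content microscopy as BAA-retaining (FITC) cells versus Hoechst-stained nuclei.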

ALDH1A1 enzyme = biological target: T1, ALDH1A1 enzyme (Homo sapiens, UniProt P00352); assay: ALDH1A1 enzymatic assay (in vitro); format: biochemical; settings: ALDH1A1 enzyme 20 nM, NAD+ 1 mM, propionaldehyde 80 μM; read-out: ALDH1A1 IC50
T1 sequence (P00352 1-501): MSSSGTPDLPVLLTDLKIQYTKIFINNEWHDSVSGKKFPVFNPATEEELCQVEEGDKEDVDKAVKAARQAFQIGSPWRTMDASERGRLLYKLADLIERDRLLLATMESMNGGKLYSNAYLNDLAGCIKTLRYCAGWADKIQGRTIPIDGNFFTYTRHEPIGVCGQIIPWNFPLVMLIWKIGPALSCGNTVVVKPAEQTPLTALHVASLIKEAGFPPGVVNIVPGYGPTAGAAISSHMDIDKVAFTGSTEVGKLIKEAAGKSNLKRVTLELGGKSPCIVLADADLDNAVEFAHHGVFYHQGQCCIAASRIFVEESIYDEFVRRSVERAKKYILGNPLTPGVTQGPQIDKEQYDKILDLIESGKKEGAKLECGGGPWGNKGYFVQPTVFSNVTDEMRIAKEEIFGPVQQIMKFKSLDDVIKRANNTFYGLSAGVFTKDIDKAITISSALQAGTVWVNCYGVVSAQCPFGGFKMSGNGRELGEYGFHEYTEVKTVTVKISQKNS
Outline: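 ALDH1A1 (20 nM final) in 100 mM HEPES pH 7.5, 0.01% Tween 20 was preincubated 15 min at RT with compound (968 pM–57.2 μM final), then started with 1 mM NAD+ and 80 μM propionaldehyde. NADH fluorescence (ex 340/em 450 nm) followed kinetically for 10 min; change normalized to no-inhibitor and no-enzyme controls for percent inhibition and curve fitting.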

IC50 (MIA PaCa-2 cells)	IC50 (ALDH1A1 enzyme)	Compound
< 0.5 µM	< 0.5 µM	CC(=O)C1(c2ccccc2)CCN(c2c(C(=O)N3CCC(S(C)(=O)=O)CC3)cnc3ccc(F)cc23)CC1 [Example 273, 1-(1-(6-fluoro-3-(4-(methylsulfonyl)piperidine-1-carbonyl)quinolin-4-yl)-4-phenylpiperidin-4-yl)ethanone]
< 0.5 µM	< 0.5 µM	CN(C)C(=O)N1CCN(C(=O)c2cnc3ccc(Cl)cc3c2-c2ccc(C3(C#N)CC3)cc2)CC1 [Example 296, 4-(6-chloro-4-(4-(1-cyanocyclopropyl)phenyl)quinoline-3-carbonyl)-N,N-dimethylpiperazine-1-carboxamide]
1 to 10 µM	< 0.5 µM	CCC(=O)N1CCN(C(=O)c2cnc3ccc(OC)cc3c2N2CCC3(CC2)OCCO3)CC1 [Example 6, 1-(4-(6-methoxy-4-(1,4-dioxa-8-azaspiro[4.5]decan-8-yl)quinoline-3-carbonyl)piperazin-1-yl)propan-1-one, TFA]
> 10 µM	> 10 µM	COc1ccc2ncc(C(=O)N3CCN(C(=O)C4CC4)CC3)c(N3CCS(=O)(=O)CC3)c2c1 [Example 29, (4-(cyclopropanecarbonyl)piperazin-1-yl)(4-(1,1-dioxidothiomorpholino)-6-methoxyquinolin-3-yl)methanone]
> 10 µM	1 to 10 µM	CC1(C#N)CCN(c2c(C(=O)N3CCN(S(=O)(=O)N4CCCC4)CC3)cnc3c(F)cc(F)cc23)CC1 [Example 168, 1-(6,8-difluoro-3-(4-(pyrrolidin-1-ylsulfonyl)piperazine-1-carbonyl)quinolin-4-yl)-4-methylpiperidine-4-carbonitrile]
> 10 µM	< 0.5 µM	O=C(c1cnc2ccc(F)cc2c1N1CCC(O)(c2ccccc2)CC1)N1CCN(C(=O)C2CC2)CC1 [Example 291, (4-(cyclopropanecarbonyl)piperazin-1-yl)(6-fluoro-4-(4-hydroxy-4-phenylpiperidin-1-yl)quinolin-3-yl)methanone]
0.5 to 1 µM	< 0.5 µM	CN(C)S(=O)(=O)N1CCN(C(=O)c2cnc3ccc(F)cc3c2N2CCC3(CC2)OCCO3)CC1 [Example 152, 4-(6-fluoro-4-(1,4-dioxa-8-azaspiro[4.5]decan-8-yl)quinoline-3-carbonyl)-N,N-dimethylpiperazine-1-sulfonamide]
> 10 µM	< 0.5 µM	COc1ccc2ncc(C(=O)N3CCS(=O)(=O)CC3)c(N3CCC4(CC3)OCCO4)c2c1 [Example 36, (1,1-dioxidothiomorpholino)(6-methoxy-4-(1,4-dioxa-8-azaspiro[4.5]decan-8-yl)quinolin-3-yl)methanone]
> 10 µM	< 0.5 µM	O=C(c1cnc2ccc(F)cc2c1N1CCC2(CC1)OCCO2)N1CCN(S(=O)(=O)N2CCCC2)CC1 [Example 153, (6-fluoro-4-(1,4-dioxa-8-azaspiro[4.5]decan-8-yl)quinolin-3-yl)(4-(pyrrolidin-1-ylsulfonyl)piperazin-1-yl)methanone]
0.5 to 1 µM	< 0.5 µM	CN(C)S(=O)(=O)N1CCN(C(=O)c2cnc3cc(F)c(F)cc3c2N2CCC3(CC2)OCCO3)CC1 [Example 172, 4-(6,7-difluoro-4-(1,4-dioxa-8-azaspiro[4.5]decan-8-yl)quinoline-3-carbonyl)-N,N-dimethylpiperazine-1-sulfonamide]
> 10 µM	1 to 10 µM	C[C@@H]1CN(C(=O)c2cnc3ccc(F)cc3c2N2CCC(C)(C#N)CC2)CCN1C(=O)C1CC1 [Example 224, (R)-1-(3-(4-(cyclopropanecareonyl)-3-methylpiperazine-1-carbonyl)-6-fluoroquinolin-4-yl)-4-methylpiperidine-4-carbonitrile]
> 10 µM	< 0.5 µM	CS(=O)(=O)N1CCN(C(=O)c2cnc3ccc(F)cc3c2N2CCN(C(=O)/C(C#N)=C/C3CC3)CC2)CC1 [Example 222, (e)-3-cyclopropyl-2-(4-(6-fluoro-3-(4-(methylsulfonyl)piperazine-1-carbonyl)quinolin-4-yl)piperazine-1-carbonyl)acrylonitrile]
1 to 10 µM	< 0.5 µM	CC1(C#N)CCN(c2c(C(=O)N3CCN(C(=O)C4CC4)CC3)cnc3c(F)c(F)c(F)cc23)CC1 [Example 128, 1-(3-(4-(cyclopropanecarbonyl)piperazine-1-carbonyl)-6,7,8-trifluoroquinolin-4-yl)-4-methylpiperidine-4-carbonitrile]
1 to 10 µM	< 0.5 µM	CS(=O)(=O)C1CCN(C(=O)c2cnc3c(F)cc(F)cc3c2N2CCC3(CC2)OCCO3)CC1 [Example 186, (6,8-difluoro-4-(1,4-dioxa-8-azaspiro[4.5]decan-8-yl)quinolin-3-yl)(4-(methylsulfonyl)piperidin-1-yl)methanone]
> 10 µM	1 to 10 µM	O=C(c1cnc2ccc(F)cc2c1N1CCC2(CC1)COC2)N1CCN(C(=O)C2CC2)CC1 [Example 68, (4-(cyclopropanecarbonyl)piperazin-1-yl)(6-fluoro-4-(2-oxa-7-azaspiro[3.5]nonan-7-yl)quinolin-3-yl)methanone]
> 10 µM	< 0.5 µM	CCNC(=O)N1CCN(C(=O)c2cnc3cc(OC)c(OC)cc3c2N2CCC(C)(C#N)CC2)CC1 [Example 115, 4-(4-(4-cyano-4-methylpiperidin-1-yl)-6,7-dimethoxyquinoline-3-carbonyl)-N-ethylpiperazine-1-carboxamide]
> 10 µM	< 0.5 µM	CC(O)C1(c2ccccc2)CCN(c2c(C(=O)N3CCN(S(C)(=O)=O)CC3)cnc3ccc(F)cc23)CC1 (centres unmarked) [Example 253, (6-fluoro-4-(4-(1-hydroxyethyl)-4-phenylpiperidin-1-yl)quinolin-3-yl)(4-(methylsulfonyl)piperazin-1-yl)methanone]
1 to 10 µM	< 0.5 µM	CC1(C#N)CCN(c2c(C(=O)N3CCN(C(=O)C4CC4)C4(CC4)C3)cnc3ccc(F)cc23)CC1 [Example 232, 1-(3-(4-(cyclopropanecarbonyl)-4,7-diazaspiro[2.5]octane-7-carbonyl)-6-fluoroquinolin-4-yl)-4-methylpiperidine-4-carbonitrile]
< 0.5 µM	< 0.5 µM	CN(C)S(=O)(=O)N1CCN(C(=O)c2cnc3c(F)cc(F)cc3c2N2CCC(C)(C#N)CC2)CC1 [Example 167, 4-(4-(4-cyano-4-methylpiperidin-1-yl)-6,8-difluoroquinoline-3-carbonyl)-N,N-dimethylpiperazine-1-sulfonamide]
< 0.5 µM	< 0.5 µM	CN(C)C(=O)N1CCN(C(=O)c2cnc3ccsc3c2N2CCC(C#N)(c3ccccc3)CC2)CC1 [Example 289, 4-(7-(4-cyano-4-phenylpiperidin-1-yl)thieno[3,2-b]pyridine-6-carbonyl)-N,N-dimethylpiperazine-1-carboxamide]
1 to 10 µM	< 0.5 µM	O=C(c1cnc2cc(F)c(F)cc2c1N1CCC2(CC1)OCCO2)N1CCN(C(=O)N2CCCC2)CC1 [Example 170, (6,7-difluoro-4-(1,4-dioxa-8-azaspiro[4.5]decan-8-yl)quinolin-3-yl)(4-(pyrrolidine-1-carbonyl)piperazin-1-yl)methanone]
1 to 10 µM	< 0.5 µM	CCNC(=O)N1CCN(C(=O)c2cnc3cc(OC)ccc3c2N2CCC3(CC2)OCCO3)CC1 [Example 139, N-ethyl-4-(7-methoxy-4-(1,4-dioxa-8-azaspiro[4.5]decan-8-yl)quinoline-3-carbonyl)piperazine-1-carboxamide]

— patent US11795177B2, “Substituted quinoline analogs as aldehyde dehydrogenase 1A1 (ALDH1A1) inhibitors” (THE UNITED STATES OF AMERICA, AS REPRESENTED BY THE …, priority 2017, dated 2023)
